Assay results taken from patent publication US5002948A, “3-[4-[4-substituted-1-piperazinyl]-1-butyl]-1H-2,3-dihydroindoles” (H. Lundbeck A/S, priority 1988, dated 1991).

Tests used:
[1] = biological target: T1, serotonin 5-HT1A receptors (Rattus norvegicus, UniProt P19327); experiment: Inhibition of 3H-8-OHDPAT binding to serotonin 5-HT1A receptors in rat brain in vitro; conditions: 3H-8-OHDPAT 1 nM, rat brain membranes minus cerebellum, 37° C., 15 min; read-out: IC50 (3H 8-OH DPAT binding)
T1 construct: membranes from rat brain minus cerebellum; from tissue; host or cells: brain minus cerebellum of male Wistar (Mol:Wist) rats, membranes
T1 sequence (P19327 1-422): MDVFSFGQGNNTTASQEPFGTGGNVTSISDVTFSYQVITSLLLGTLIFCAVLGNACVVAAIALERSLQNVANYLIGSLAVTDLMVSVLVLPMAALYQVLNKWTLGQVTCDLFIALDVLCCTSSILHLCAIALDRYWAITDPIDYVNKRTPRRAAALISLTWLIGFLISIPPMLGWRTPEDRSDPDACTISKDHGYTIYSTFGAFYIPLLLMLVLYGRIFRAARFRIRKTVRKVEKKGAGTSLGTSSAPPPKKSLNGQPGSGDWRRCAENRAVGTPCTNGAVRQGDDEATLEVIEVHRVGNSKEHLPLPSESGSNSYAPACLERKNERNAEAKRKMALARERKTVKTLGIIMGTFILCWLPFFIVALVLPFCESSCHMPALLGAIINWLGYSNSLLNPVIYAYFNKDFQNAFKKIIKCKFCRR
Method: INHIBITION OF ^3 H-8-OHDPAT BINDING TO SEROTONIN 5-HT1A RECEPTORS IN A RAT BRAIN IN VITRO
By this method the inhibition by drugs of the binding of ^3 H-8-OHDPAT (1 nM) to serotonin 5-HT1A receptors in membranes from rat brain minus cerebellum is determined in vitro.
Male Wistar (Mol:Wist) rats (125-250 g) are sacrificed and the brain is dissected and weighed. The brain tissue minus cerebellum is homogenized (Ultra Turrax, 20 sec) in 10 ml of ice cold 50 mM Tris buffer pH 8.0 (at 25° C.) containing 120 mM NaCl, 4 mM CaCl2 and 4 mM MgCl2. The homogenate is centrifuged at 20,000 g for 10 min at 4° C. The pellet is homogenized in 10 ml of buffer and incubated at 37° C. for 10 min. The homogenate is centrifuged as above and the pellet is homogenized in 100 vol (w/v) ice cold buffer containing 10 μ M of parglyine.
Incubation tubes kept on ice in triplicate receive 100 μl of drug solution in water (or water for total binding) and 1000 μ l of tissue suspension (final tissue content corresponds to 10 mg original tissue). The binding experiment is initiated by addition of 100 μ l of ^3 H-8-OHDPAT (final concentration 1 nM) and by placing the tubes in a 37° C. water bath. After incubation for 15 min the samples are filtered under vacuum (0-50 mBar) through Whatman GF/F filters ([…]). The tubes are rinsed with 5 ml ice cold 0.9% NaCl which are then poured on the filters. Thereafter, the filters are washed with 2×5 ml 0.9% NaCl. The filters are placed in counting vials and 4 ml of appropriate scintillation fluid (e.g. Picofluor™15) are added. After shaking for 1 h and storage 2 h in the dark the content of radioactivity is determined by liquid scintillation counting. Specific binding is obtained by subtracting the nonspecific binding in the presence of 10 μ M of 5-HT.
For determination of the inhibition of binding five concentrations of drugs covering 3 decades are used.
The IC50 -value is determined as the concentration, at which the binding is 50% of the total binding in control samples minus the nonspecific binding in the presence of 10 μM of 5-HT.
^3 H-8-OHDPAT from Amersham International plc. England. Specific activity approximately 200 Ci/mmol).

5-HT1A = biological target: T2, 5-HT1A (Rattus norvegicus, UniProt P19327); experiment: Inhibition of 5-methoxy-N,N-dimethyltryptamine (5-MeODMT) induced 5-HT syndrome in rats; format: in vivo, Male Wistar rats; set-up: Male Wistar rats (Mol:Wist) weighing 170-240 g are used; from tissue; host or cells: whole living animal, male Wistar rats (Mol:Wist), s.c. dosing; conditions: 30 min before 5-MeODMT 5 mg/kg s.c., per cent inhibition of piano playing syndrome; for ED50: rat, sc
T2 sequence (P19327 1-422): T1 sequence (P19327 1-422)
From the text: INHIBITION OF 5-METHOXY-N,N-[…] INDUCED 5-HT SYNDROME IN RATS
The so-called 5-HT syndrome is a characteristic behaviour pattern which is induced by 5-HT agonists with effects on 5-HT, possibly 5-HT1A receptors, although lack of specific antagonists make it difficult to evaluate specificity (Smith, L. M. and S. J. Peroutka, Pharmacol. Biochem. & Behaviour 24, 1513-1519, 1986; Tricklebank, M. et al., Eur. J. Pharmacol. 117, 15-24, 1985).
Male Wistar rats (Mol:Wist) weighing 170-240 g are used. Test substrate is injected subcutaneously 30 min. before 5-methoxy-N,N-dimethyltryptamine 5 mg/kg, s.c. Four rats are used for each dose. A control group pretreated with saline is included each test day. Ten, 15 and 20 min later the rats are observed for presence of serotonin (5-HT) syndrome: (1) forepaw treading ("piano playing"), (2) head weaving and (3) hindleg abduction. Further, flat motility is scored. Each part of the syndrome is scored as follows: marked effect (score 2), weak syndrome (score 1) and no effect (score 0). The scores of the three observation times are added. Thus the maximum obtainable score for four rats is 24. The effect of the test substance is expressed as per cent inhibition relative to the control group.
The per cent inhibition of the piano playing syndrome is used as the response, and ED50 values are calculated by log-prohibit analysis.

IC50 [1]	ED50 (5-HT1A)	ED50, inhibition of 5-MeODMT induced 5-HT syndrome (5-HT1A; s.c.)	Compound
9.4 nM	4 µmol/kg	–	c1ccc2c(c1)NCC2CCCCN1CCN(c2cccc3c2OCC3)CC1 (stereo not drawn) [Compound 3i, 3-[4-[4-(2,3-dihydro-7-benzofuranyl)-1-piperazinyl]-1-butyl]-1H-2,3-dihydroindole]
3.3 nM	3.1 µmol/kg	–	c1ccc2c(c1)NCC2CCCCN1CCN(c2cccc3c2OCCO3)CC1 (stereo not drawn) [Compound 3j, 3-[4-[4-(1,4-benzodioxan-5-yl)-1-piperazinyl]-1-butyl]-1H-2,3-dihydroindole]
13 nM	2.1 µmol/kg	–	COc1ccccc1N1CCN(CCCCC2CNc3ccccc32)CC1 (single isomer, unassigned; (+)) [Compound 7a, (+)-3-[4-[4-(2-methoxyphenyl)-1-piperazinyl]-1-butyl]-1H-2,3-dihydroindole]
14 nM	1.9 µmol/kg	–	COc1ccccc1N1CCN(CCCCC2CNc3ccccc32)CC1 (stereo not drawn) [Compound 3a, 3-[4-[4-(2-methoxyphenyl)-1-piperazinyl]-1-butyl]-1H-2,3-dihydroindole]
8.6 nM	–	1.3 µmol/kg	COc1ccccc1N1CCN(CCCCC2CNc3ccccc32)CC1 (single isomer, unassigned; (-)) [Compound 7b, (-)-3-[4-[4-(2-methoxyphenyl)-1-piperazinyl]-1-butyl]-1H-2,3-dihydroindole]
11 nM	0.48 µmol/kg	–	CCOc1ccccc1N1CCN(CCCCC2CNc3ccccc32)CC1 (stereo not drawn) [Compound 3c, 3-[4-[4-(2-ethoxyphenyl)-1-piperazinyl]-1-butyl]-1H-2,3-dihydroindole]
